Test results as given in ChEMBL document CHEMBL1681664, “Specific biotinylation of IMP dehydrogenase” (Bioorg Med Chem Lett, 2011).
The source made the active and inactive calls. The rule behind the calls is not given here.

What was measured:
[1] = target: Inosine-5'-monophosphate dehydrogenase 2 (Homo sapiens) (UniProt P12268); test: Ratio of Kinact to Ki for human IMPDH2 at 25 degC
[2] = target: Inosine-5'-monophosphate dehydrogenase 2 (Homo sapiens) (UniProt P12268); test: Inhibition of human IMPDH2 at 200 uM by SDS-PAGE in presence of 6 mM dithiothreitol
Escherichia coli [3] = test: Ratio of Kinact to Ki for Escherichia coli IMPDH at 25 degC
[4] = target: Inosine-5'-monophosphate dehydrogenase 2 (Homo sapiens) (UniProt P12268); test: Inhibition of human IMPDH2 at 200 uM by SDS-PAGE
Escherichia coli [5] = test: Inhibition of GMPR in wild type Escherichia coli MG1655 cell lysate by SDS-PAGE
Escherichia coli [6] = test: Inhibition of recombinant Escherichia coli IMPDH with active site Cys replaced with Ala mutant by SDS-PAGE
[7] = target: Inosine-5'-monophosphate dehydrogenase 2 (Homo sapiens) (UniProt P12268); test: Inhibition of human IMPDH2 at 100 to 500 uM at pH 8
Escherichia coli [8] = test: Inhibition of IMPDH in wild type Escherichia coli MG1655 cell lysate by SDS-PAGE
Escherichia coli [9] = test: Inhibition of recombinant Escherichia coli IMPDH by SDS-PAGE
[10] = target: Inosine-5'-monophosphate dehydrogenase 2 (Homo sapiens) (UniProt P12268); test: Ratio of Kinact to Ki for human IMPDH2 at 37 degC

Sequence of Inosine-5'-monophosphate dehydrogenase 2 (Homo sapiens) (P12268 2-514 limits assumed): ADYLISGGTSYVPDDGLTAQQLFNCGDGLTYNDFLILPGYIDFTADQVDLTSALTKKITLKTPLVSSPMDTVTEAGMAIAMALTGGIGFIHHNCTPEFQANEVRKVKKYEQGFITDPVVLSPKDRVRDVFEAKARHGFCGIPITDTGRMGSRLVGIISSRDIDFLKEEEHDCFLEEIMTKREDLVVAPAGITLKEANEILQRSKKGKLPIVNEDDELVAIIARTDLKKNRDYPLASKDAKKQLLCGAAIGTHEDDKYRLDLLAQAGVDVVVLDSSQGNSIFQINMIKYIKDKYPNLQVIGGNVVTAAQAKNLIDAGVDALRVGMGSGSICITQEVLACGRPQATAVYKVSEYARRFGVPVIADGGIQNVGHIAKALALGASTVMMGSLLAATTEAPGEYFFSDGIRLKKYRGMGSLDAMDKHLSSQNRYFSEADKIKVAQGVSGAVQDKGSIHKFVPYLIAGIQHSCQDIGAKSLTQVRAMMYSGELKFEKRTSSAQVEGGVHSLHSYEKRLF

O=P(O)(O)OC[C@H]1O[C@@H](n2cnc3c(Cl)ncnc32)[C@H](O)[C@@H]1O
Ratio [1]: 0.9 M⁻¹ s⁻¹ | inhibition [2]: inactive | Ratio (Escherichia coli [3]): 120 M⁻¹ s⁻¹

O=C(CCCC[C@@H]1SC[C@@H]2NC(=O)N[C@@H]21)NCCCO[C@@H]1[C@H](O)[C@@H](COP(=O)(O)O)O[C@H]1n1cnc2c(Cl)ncnc21
inhibition [4]: Active | inhibition (Escherichia coli [5]): Active | inhibition (Escherichia coli [6]): inactive | inhibition [7]: Active | inhibition (Escherichia coli [8]): Active | inhibition (Escherichia coli [9]): Active | Ratio [10]: 1.4 M⁻¹ s⁻¹ | Ratio (Escherichia coli [3]): 130 M⁻¹ s⁻¹
